The test system of the assay is NFE2L1/TCF11/NRF1, SQSTM1/p62, LC3, NQO1 and HSPA1A/HSP70-1 protein levels. Nature of the assay: Immunoblot analysis in HEK293 cells. It counts as cell-based, human. The conditions noted are these: for LC3-I protein level, Treatment geometric mean / LC3-II protein level, Treatment geometric mean / HSPA1A protein level, Treatment geometric mean / LC3-total protein level, Treatment geometric mean / NFE2L1 protein level, Treatment geometric mean / NQO1 protein level, Treatment geometric mean / SQSTM1 protein level, Treatment geometric mean: immunoblot quantification; for LC3-I protein level, Treatment geometric mean / LC3-II protein level, Treatment geometric mean / HSPA1A protein level, Treatment geometric mean / LC3-total protein level, Treatment geometric mean / NFE2L1 protein level, Treatment geometric mean / NQO1 protein level, Treatment geometric mean / SQSTM1 protein level, Treatment geometric mean / HSPA1A protein level, geometric mean of ratios / LC3-II protein level, geometric mean of ratios / LC3-total protein level, geometric mean of ratios / NFE2L1 protein level, geometric mean of ratios / NQO1 protein level, geometric mean of ratios / SQSTM1 protein level, geometric mean of ratios: Fig. 2B; for LC3-I protein level, Treatment geometric mean: control geometric mean = 0.24; for LC3-II protein level, Treatment geometric mean: control geometric mean = 0.73; for HSPA1A protein level, Treatment geometric mean / LC3-total protein level, Treatment geometric mean / NFE2L1 protein level, Treatment geometric mean / NQO1 protein level, Treatment geometric mean / SQSTM1 protein level, Treatment geometric mean: control geometric mean = 1; for HSPA1A protein level, geometric mean of ratios / LC3-II protein level, geometric mean of ratios / LC3-total protein level, geometric mean of ratios / NFE2L1 protein level, geometric mean of ratios / NQO1 protein level, geometric mean of ratios / SQSTM1 protein level, geometric mean of ratios: ratio paired t test, treatment vs control. Here is the method: Fig. 2 (A) qPCRs of HEK293 cells treated with RUN compounds (7.5 μM) for 16 hours. The extracted RNA was reverse transcribed into cDNA and utilized for RT-qPCR (primers are listed in the SI, Table S1); the mRNA levels of RPLP0 were used for normalization. The experiment was performed in three biological replicates (n = 3). (B) Immunoblot analysis of proteins NFE2L1/TCF11/NRF1, SQSTM1/p62, LC3, NQO1 and HSPA1A/HSP70-1 in HEK293 cells after 16 h treatment with 7.5 μM RUN compounds. The protein levels were quantified by measuring the integrated fluorescence of the corresponding protein bands and normalized to the β-actin load. The full-length (F) and cleaved (C) forms of NFE2L1 were analyzed together. The experiment was performed in four biological replicates (n = 4) except for NFE2L1 (n = 3). (A and B) Results of RUN compounds were compared to the DMSO control using ratio paired t-tests corrected for multiple comparisons with Holm–Šídák's method (α = 0.05). *p < 0.05, **p < 0.01. Detailed results of the analysis are shown in SI Tables S5 and S6.
To confirm NFE2L1-controlled gene expression at the protein level, western blot analysis was performed. HEK293 cells were treated with selected RUN compounds for 16 hours, after which the protein levels were analyzed. […] Similar observations were made with SQSTM1 and LC3. As mentioned earlier, SQSTM1 directly binds to the LC3 region to facilitate the delivery of proteins for autophagic clearance.[62,64,65] Within cells, LC3 undergoes cleavage to form its cytosolic version, LC3-I, which is further converted into its membrane-bound form, LC3-II, which is anchored in autophagosomal membranes.[60,66] Consequently, both SQSTM1 and LC3 are widely regarded as markers of autophagy.[65] […] The increase in the LC3-II form indicates active autophagic processes. […]
HEK293 cells were treated with 7.5 µM RUN compounds for 16 h, then harvested and resuspended in lysis buffer [50 mM HEPES (pH 7.5), 5 mM EDTA, 150 mM NaCl, 2 mM ATP, and 1% Triton]. Cell lysates were subsequently centrifuged at 15,000 rpm and 4°C for 15 minutes, and then a protein concentration was determined using the Pierce BCA Protein Assay Kit (Thermo Fisher Scientific). Cell lysates were boiled for 5 min at 95 °C in a 6xSDS sample buffer [350 mM Tris-HCl (pH 6.8), 350 mM SDS, 30% (v/v) glycerol, 4% β-mercaptoethanol, 180 µM bromophenol blue]. Prepared samples (15 µg of proteins) were separated by SDS-PAGE (10, 12, or 16% Bis-Tris gels; 50 V for 5 min, then 200 V) and transferred onto a 0.45 µm nitrocellulose membrane (Bio-Rad). For LC3 level analysis, the 0.2 µm nitrocellulose membrane (Bio-Rad) was used. Membranes were blocked in Intercept® (TBS) Blocking Buffer (LI-COR Biosciences) for 1 h at room temperature and then incubated with primary antibodies in Intercept® (TBS) Blocking Buffer with 0.1% Tween-20 overnight at 4°C. Used primary antibodies: anti-NFE2L1/TCF11/SKN1/NRF1 monoclonal antibody (Cell Signalling; #8052; anti-NQO1 polyclonal antibody (Sigma-Aldrich; # HPA007308; 1:5.000), anti-LC3 antibody […]
(Sigma-Aldrich; #L8918), anti-p62/SQSTM antibody (Sigma-Aldrich; #P0067), anti-β-actin monoclonal antibody (Sigma-Aldrich; #A5441; 1:10.000). The resulting membranes were washed and incubated with near-infrared fluorophore-conjugated goat anti-mouse IRDye […]
COR Biosciences; #926-32211; 1:15.000) for 1 h at room temperature. Membranes were imaged using Odyssey® M NIR Imaging System (LI-COR Biosciences) and quantified using Image Studio software v. 6.0 (LI-COR Biosciences). The protein levels were quantified by measuring the integrated fluorescence of the corresponding protein bands and normalized to the β-actin loading control. Changes in protein levels after treatment with RUN compounds were analyzed using paired t-tests with correction for multiple comparisons using the Holm-Šídák method (α = 0.05) in GraphPad Prism (v 10.6.1).
2.7 Proteasome activity assay […]
(In western blotting, separated proteins are transferred to a membrane and probed.)

Setting [1] is: HEK293, 7.5 μM, 16 h, versus DMSO.

In the case of `COc1ccc(/C=C2\CC(NC(=O)C3CCCC3)C/C(=C\c3ccc(OC)c(OC)c3)C2=O)cc1OC` (centres unmarked) [RUN-89], the “LC3-I protein level, Treatment geometric mean” value (“LC3-I protein level” below) turned out to be 0.26; the “LC3-II protein level, Treatment geometric mean” value was 1.88; the “HSPA1A protein level, Treatment geometric mean” value is listed as 4.38; the “LC3-total protein level, Treatment geometric mean” value is recorded as 2.16. Also, the “NFE2L1 protein level, Treatment geometric mean” value stood at 13.41; the “NQO1 protein level, Treatment geometric mean” value worked out at 3.31; the “SQSTM1 protein level, Treatment geometric mean” value came out at 4.74; the “HSPA1A protein level, geometric mean of ratios” value (shortened to “HSPA1A protein level … of ratios”) was found to be 4.38. The “LC3-II protein level, geometric mean of ratios” value (from here on “LC3-II protein level … of ratios”) was determined as 2.56; the “LC3-total protein level, geometric mean of ratios” value is given as 2.16; the “NFE2L1 protein level, geometric mean of ratios” value (“NFE2L1 protein level … of ratios” for short) is on record as 13.41; the “NQO1 protein level, geometric mean of ratios” value (“NQO1 protein level … of ratios” for short) is 3.31. The “Total LC3 protein level” value under setting [1] was “significantly elevate”.

Take `COc1ccc(/C=C2\CC(NC(=O)c3ccccn3)C/C(=C\c3ccc(OC)c(OC)c3)C2=O)cc1OC` (centres unmarked) [RUN-94]: the “LC3-I protein level” value stood at 0.38; the “LC3-II protein level, Treatment geometric mean” value was determined as 1.72; the “HSPA1A protein level, Treatment geometric mean” value is on record as 3.12; the “LC3-total protein level, Treatment geometric mean” value was 2.14. For the same molecule, the “NFE2L1 protein level, Treatment geometric mean” value stood at 14.37; the “NQO1 protein level, Treatment geometric mean” value came to 4.16; the “SQSTM1 protein level, Treatment geometric mean” value is on record as 5.55; the “HSPA1A protein level … of ratios” value turned out to be 3.12. In addition, the “LC3-II protein level … of ratios” value stood at 2.35; the “LC3-total protein level, geometric mean of ratios” value was 2.14; the “NFE2L1 protein level … of ratios” value was found to be 14.37; the “NQO1 protein level … of ratios” value is 4.16. The “SQSTM1 protein level, geometric mean of ratios” value amounted to 5.55. For the same molecule, under setting [1], the NQO1 protein level result is recorded as “notably boosting” and the “Total LC3 protein level” value is given as “significantly elevate”.

As to `COc1ccc(/C=C2\CC(N)C/C(=C\c3ccc(OC)c(OC)c3)C2=O)cc1OC` (centres unmarked) [RUN-81], the “LC3-I protein level” value came out at 0.29; the “LC3-II protein level, Treatment geometric mean” value is 1.57; the “HSPA1A protein level, Treatment geometric mean” value is 3.49; the “LC3-total protein level, Treatment geometric mean” value is listed as 1.88. Besides, the “NFE2L1 protein level, Treatment geometric mean” value was found to be 6.78; the “NQO1 protein level, Treatment geometric mean” value came out at 3.12; the “SQSTM1 protein level, Treatment geometric mean” value stood at 3.55; the “HSPA1A protein level … of ratios” value is reported as 3.49. The “LC3-II protein level … of ratios” value stood at 2.14; the “LC3-total protein level, geometric mean of ratios” value came out at 1.88; the “NFE2L1 protein level … of ratios” value amounted to 6.78; the “NQO1 protein level … of ratios” value was determined as 3.12. The “SQSTM1 protein level, geometric mean of ratios” value is 3.55.

Source of the values: paper PMC12606464, “Investigating NFE2L1 activators for targeted protein aggregate clearance: a follow-up study” (RSC Medicinal Chemistry, 2025).
